In ChEMBL document CHEMBL4417631, “Oral peptide inhibitors of interleukin-23 receptor and their use to treat inflammatory bowel diseases” (2017):
*1 amine or outer side, *2 acyl side, *3 side chain or, on linkers, in order; H or OH if unused. Where a SMILES comes first, the peptide text is derived from it. Bridges are numbered along the chain shown (N, C = ends). Roman numbers before positions name the chains, in order. [ ]: non-standard residue; d: D form. Abu(4-yl) = O=C([C@H](CC[*:3])N[*:1])[*:2]; 2Nal = N[C@@H](Cc1ccc2ccccc2c1)C(=O)O; Diglycolyl = O=C(COCC(=O)[*:2])[*:1]; AEF = NCCOc1ccc(C[C@H](N)C(=O)O)cc1; Aib = CC(C)(N)C(=O)O

Legend:
[1] = target: T1, Interleukin-23 receptor (Homo sapiens, UniProt Q5VWK5); assay: Inhibition of interleukin-23 binding to human interleukin-23 receptor incubated for 2 hrs by competitive binding ELISA
T1 sequence (Q5VWK5 whole entry): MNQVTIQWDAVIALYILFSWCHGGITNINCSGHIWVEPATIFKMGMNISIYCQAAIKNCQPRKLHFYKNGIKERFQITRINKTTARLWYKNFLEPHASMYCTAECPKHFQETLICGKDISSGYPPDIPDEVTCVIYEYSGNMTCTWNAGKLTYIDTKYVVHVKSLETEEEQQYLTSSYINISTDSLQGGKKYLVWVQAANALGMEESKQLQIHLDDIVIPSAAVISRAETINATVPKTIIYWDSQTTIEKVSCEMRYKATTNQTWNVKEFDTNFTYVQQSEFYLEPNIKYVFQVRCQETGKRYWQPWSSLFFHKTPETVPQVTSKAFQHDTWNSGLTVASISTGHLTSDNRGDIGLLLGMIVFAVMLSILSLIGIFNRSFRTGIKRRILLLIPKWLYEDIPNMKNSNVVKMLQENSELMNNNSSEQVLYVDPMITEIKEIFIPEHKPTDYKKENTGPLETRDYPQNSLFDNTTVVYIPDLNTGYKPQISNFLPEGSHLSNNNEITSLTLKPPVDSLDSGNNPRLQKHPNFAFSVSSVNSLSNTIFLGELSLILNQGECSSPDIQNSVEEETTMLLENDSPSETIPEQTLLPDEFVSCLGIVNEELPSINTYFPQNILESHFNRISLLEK

[2] = target: T1, Interleukin-23 receptor; assay: Inhibition of interleukin-23 receptor in human DB cells assessed as reduction in IL-23-stimulated STAT3 phosphorylation incubated for 30 mins by HTRF assay; format: cell-based

SMILES | IC50 [1] | IC50 [2]
CC(=O)N[C@H](C(=O)N[C@H](C(=O)N[C@H](C(=O)N[C@@H](Cc1c[nH]c2ccccc12)C(=O)N[C@@H](CCC(N)=O)C(=O)N[C@H](C(=O)N[C@@H](Cc1ccc(OCCN)cc1)C(=O)N[C@@H](Cc1ccc2ccccc2c1)C(=O)N[C@@](C)(CCCCN)C(=O)N[C@@H](CCC(=O)O)C(=O)N[C@@H](CC(N)=O)C(=O)NCC(N)=O)C(C)(C)S)[C@@H](C)O)[C@@H](C)O)C(C)(C)S | 10 to 25 nM | < 10 nM
COc1ccc(C[C@H](NC(=O)[C@@H](NC(=O)[C@H](CCC(N)=O)NC(=O)[C@H](Cc2c[nH]c3ccccc23)NC(=O)[C@@H](NC(=O)[C@H](CCC(N)=O)NC(=O)[C@@H](NC(C)=O)C(C)(C)S)[C@@H](C)O)C(C)(C)S)C(=O)N[C@@H](Cc2ccc3ccccc3c2)C(=O)N[C@@](C)(CCCN)C(=O)N[C@@H](CCCCNC(C)=O)C(=O)N[C@@H](CC(N)=O)C(=O)NCC(N)=O)cc1 | 100 to 1000 nM | 25 to 100 nM
CC(=O)N[C@@H](CS)C(=O)N[C@@H](C)C(=O)N[C@@H](CC(=O)O)C(=O)N[C@@H](Cc1c[nH]c2ccccc12)C(=O)N[C@H](C(=O)N[C@@H](CS)C(=O)N[C@@H](Cc1ccc(O)cc1)C(=O)N[C@@H](Cc1c[nH]c2ccccc12)C(=O)N[C@@H](Cc1cnc[nH]1)C(=O)N[C@H](C(=O)N[C@@H](Cc1ccccc1)C(=O)NCC(=O)N[C@H](CCCCN)C(=O)O)[C@@H](C)O)C(C)C | 100 to 1000 nM | 100 to 1000 nM
CC(=O)N[C@H]1CCSC[C@@H](C(=O)N[C@@H](Cc2ccc(OCCNC(=O)COCC(=O)NCCOc3ccc(C[C@H](NC(=O)[C@@H]4CSCC[C@H](NC(C)=O)C(=O)N[C@@H](CCC(N)=O)C(=O)N[C@@H]([C@@H](C)O)C(=O)N[C@@H](Cc5c[nH]c6ccccc56)C(=O)N[C@@H](CCC(N)=O)C(=O)N4)C(=O)N[C@@H](Cc4ccc5ccccc5c4)C(=O)NC(C)(C)C(=O)N[C@@H](CCC(N)=O)C(=O)N[C@@H](CC(N)=O)C(=O)NCC(N)=O)cc3)cc2)C(=O)N[C@@H](Cc2ccc3ccccc3c2)C(=O)NC(C)(C)C(=O)N[C@@H](CCC(N)=O)C(=O)N[C@@H](CC(N)=O)C(=O)NCC(N)=O)NC(=O)[C@H](CCC(N)=O)NC(=O)[C@H](Cc2c[nH]c3ccccc23)NC(=O)[C@H]([C@@H](C)O)NC(=O)[C@H](CCC(N)=O)NC1=O (I: Ac-[Abu(4-yl)]QTWQC[AEF][2Nal][Aib]QNG-NH2 / II: Ac-[Abu(4-yl)]QTWQC[AEF][2Nal][Aib]QNG-NH2; thioether I:1-I:6, II:1-II:6; linker I:7-II:7 via Diglycolyl) | 25 to 100 nM | 10 to 25 nM
CC(=O)NCCCC[C@H](NC(=O)[C@](C)(CCCCN)NC(=O)[C@H](Cc1c[nH]c2ccccc12)NC(=O)[C@H](Cc1ccc(OCCN)cc1)NC(=O)[C@@H]1CSCC[C@H](NC(C)=O)C(=O)N[C@@H](CCC(N)=O)C(=O)N[C@@H]([C@@H](C)O)C(=O)N[C@@H](Cc2c[nH]c3ccccc23)C(=O)N[C@@H](CCC(N)=O)C(=O)N1)C(=O)NC1CNC(=O)CNC1=O (stereo partly specified) | 25 to 100 nM | < 10 nM
CC(=O)N[C@H](C(=O)NCC(=O)N[C@H](C(=O)N[C@@H](Cc1c[nH]c2ccccc12)C(=O)N[C@@H](CCC(N)=O)C(=O)N[C@H](C(=O)N[C@@H](Cc1ccc(OCCN)cc1)C(=O)N[C@@H](Cc1ccc2ccccc2c1)C(=O)N[C@@](C)(CCCCN)C(=O)N[C@@H](CCC(=O)O)C(=O)N[C@@H](CC(N)=O)C(=O)NCC(N)=O)C(C)(C)S)[C@@H](C)O)C(C)(C)S | 10 to 25 nM | < 10 nM
CC(=O)N[C@H](C(=O)N[C@@H](CCC(N)=O)C(=O)N[C@H](C(=O)N[C@@H](Cc1c[nH]c2ccccc12)C(=O)N[C@@H](CCC(N)=O)C(=O)N[C@H](C(=O)N[C@@H](Cc1ccc(OCCN)cc1)C(=O)N[C@@H](Cc1ccc2ccccc2c1)C(=O)N[C@@](C)(CCCCN)C(=O)N[C@@H](CCC(=O)O)C(=O)N[C@@H](CC(N)=O)C(=O)NCC(N)=O)C(C)(C)S)[C@@H](C)O)C(C)(C)S | 10 to 25 nM | < 10 nM
CC(=O)NCCCC[C@H](NC(=O)C(C)(C)NC(=O)[C@H](Cc1ccc2ccccc2c1)NC(=O)[C@H](Cc1ccc(OCCN)cc1)NC(=O)[C@@H](NC(=O)[C@H](CCC(N)=O)NC(=O)[C@H](Cc1c[nH]c2ccccc12)NC(=O)[C@@H](NC(=O)[C@H](CCC(N)=O)NC(=O)[C@@H](NC(=O)[C@@H](CC(=O)O)NC(C)=O)C(C)(C)S)[C@@H](C)O)C(C)(C)S)C(=O)N[C@@H](CC(N)=O)C(=O)N[C@@H](CC(N)=O)C(N)=O |  | < 10 nM
CC(=O)NCCCC[C@H](NC(=O)C(C)(C)NC(=O)[C@H](Cc1ccc2ccccc2c1)NC(=O)[C@H](Cc1ccc(OCCN)cc1)NC(=O)[C@@H](NC(=O)[C@H](CCC(N)=O)NC(=O)[C@H](Cc1c[nH]c2ccccc12)NC(=O)[C@@H](NC(=O)[C@H](CCC(N)=O)NC(=O)[C@@H](NC(=O)[C@H](Cc1ccccc1)NC(C)=O)C(C)(C)S)[C@@H](C)O)C(C)(C)S)C(=O)N[C@@H](CC(N)=O)C(=O)N[C@@H](CC(N)=O)C(N)=O |  | < 10 nM
CC(=O)NCCCC[C@H](NC(=O)[C@H](CCCCN)NC(=O)[C@H](Cc1ccc2ccccc2c1)NC(=O)[C@H](Cc1ccc(OCCNC(C)=O)cc1)NC(=O)[C@@H](NC(=O)[C@H](CCC(N)=O)NC(=O)[C@H](Cc1c[nH]c2ccccc12)NC(=O)[C@@H](NC(=O)[C@H](CCC(N)=O)NC(=O)[C@@H](NC(C)=O)C(C)(C)S)[C@@H](C)O)C(C)(C)S)C(=O)N[C@@H](CC(N)=O)C(=O)N[C@@H](CC(N)=O)C(N)=O |  | 25 to 100 nM
CC(=O)NCCCC[C@H](NC(=O)[C@@](C)(NC(=O)[C@H](Cc1ccc2ccccc2c1)NC(=O)[C@H](Cc1ccc(C(N)=O)cc1)NC(=O)[C@@H](NC(=O)[C@H](CCC(N)=O)NC(=O)[C@H](Cc1c[nH]c2ccccc12)NC(=O)[C@@H](NC(=O)[C@H](CCC(N)=O)NC(=O)[C@@H](NC(=O)[C@@H](CCCCN)NC(C)=O)C(C)(C)S)[C@@H](C)O)C(C)(C)S)C(C)C)C(=O)N[C@@H](CC(N)=O)C(=O)N[C@@H](CC(N)=O)C(N)=O |  | 1000 to 10000 nM
COc1ccc(C[C@H](NC(=O)[C@@H](NC(=O)[C@H](CCC(N)=O)NC(=O)[C@H](Cc2c[nH]c3ccccc23)NC(=O)[C@@H](NC(=O)[C@H](CCC(N)=O)NC(=O)[C@@H](NC(C)=O)C(C)(C)S)[C@@H](C)O)C(C)(C)S)C(=O)N[C@@H](Cc2ccc3ccccc3c2)C(=O)NC(C)(C)C(=O)N[C@@H](CCCCNC(C)=O)C(=O)N[C@@H](CC(N)=O)C(=O)NCCC(N)=O)cc1 |  | < 10 nM
COc1ccc(C[C@H](NC(=O)[C@@H](NC(=O)[C@H](CCC(N)=O)NC(=O)[C@H](Cc2c[nH]c3ccccc23)NC(=O)[C@@H](NC(=O)[C@H](CCC(N)=O)NC(=O)[C@@H](NC(C)=O)C(C)(C)S)[C@@H](C)O)C(C)(C)S)C(=O)N[C@@H](Cc2ccc3ccccc3c2)C(=O)NC(C)(C)C(=O)N[C@@H](CCCCNC(C)=O)C(=O)N[C@@H](CC(N)=O)C(=O)N[C@@H](C)C(N)=O)cc1 |  | < 10 nM
CC(=O)NCCCC[C@H](NC(=O)C(C)(C)NC(=O)[C@H](Cc1ccc2ccccc2c1)NC(=O)[C@H](Cc1ccc(OCCN)cc1)NC(=O)[C@@H](NC(=O)[C@H](CCC(N)=O)NC(=O)[C@H](Cc1c[nH]c2ccccc12)NC(=O)[C@@H](NC(=O)[C@H](CCC(N)=O)NC(=O)[C@@H](NC(=O)[C@H](CCCNC(=N)N)NC(C)=O)C(C)(C)S)[C@@H](C)O)C(C)(C)S)C(=O)N[C@@H](CC(N)=O)C(=O)N[C@@H](CC(N)=O)C(N)=O |  | < 10 nM
